According to ChEMBL document CHEMBL5584329, “Development of new dehydrocostuslactone derivatives for treatment of atopic dermatitis via inhibition of the NF-κB signaling pathway” (RSC Med Chem, 2024):

Key:
RAW264.7 [1] = assay: Inhibition of LPS-induced NO production in mouse RAW264.7 cells at 20 uM preincubated for 2 hrs followed by LPS addition and measured after 24 hrs by Griess assay relative to control; type: functional; conditions: time 26 hrs
[2] = Cytotoxicity against mouse RAW264.7 cells assessed as inhibition of cell viability at 20 uM by MTT assay relative to control; type: toxicity, cell-based; conditions: read-out: INH
[3] = Cytotoxicity against mouse RAW264.7 cells assessed as inhibition of cell viability by MTT assay relative to control; type: toxicity, cell-based
RAW264.7 [4] = assay: Inhibition of LPS-induced NO production in mouse RAW264.7 cells preincubated for 2 hrs followed by LPS addition and measured after 24 hrs by Griess assay relative to control; type: functional, cell-based

Structure (SMILES): C=C1CC[C@H]2C(=C)CC[C@H]3C(CN(CCNS(=O)(=O)c4cccc(Cl)c4F)S(=O)(=O)c4cccc(Cl)c4F)C(=O)O[C@@H]3[C@@H]12 (stereo partly specified)
- inhibition at 20 µM (RAW264.7 [1]): 48.1%
- cytotoxicity at 20 µM [2]: 1.67%

Structure (SMILES): C=C1CC[C@H]2C(=C)CC[C@H]3C(CN(CCNS(=O)(=O)c4ccc(C)cc4)S(=O)(=O)c4ccc(C)cc4)C(=O)O[C@@H]3[C@@H]12 (stereo partly specified)
- inhibition at 20 µM (RAW264.7 [1]): 82.5%
- cytotoxicity at 20 µM [2]: 14.8%
- IC50 [3]: > 40 µM
- IC50 (RAW264.7 [4]): 7.72 µM

Structure (SMILES): C=C1CC[C@H]2C(=C)CC[C@H]3C(CN(CCNS(=O)(=O)c4ccc(C(C)(C)C)cc4)S(=O)(=O)c4ccc(C(C)(C)C)cc4)C(=O)O[C@@H]3[C@@H]12 (stereo partly specified)
- inhibition at 20 µM (RAW264.7 [1]): 81.2%
- cytotoxicity at 20 µM [2]: 9.88%
- IC50 [3]: > 40 µM
- IC50 (RAW264.7 [4]): 6.31 µM

Structure (SMILES): C=C1CC[C@H]2C(=C)CC[C@H]3C(CN(CCNS(=O)(=O)c4ccc(OC(F)(F)F)cc4)S(=O)(=O)c4ccc(OC(F)(F)F)cc4)C(=O)O[C@@H]3[C@@H]12 (stereo partly specified)
- inhibition at 20 µM (RAW264.7 [1]): 84%
- cytotoxicity at 20 µM [2]: 13.6%
- IC50 [3]: > 40 µM
- IC50 (RAW264.7 [4]): 4.26 µM

Structure (SMILES): C=C1CC[C@H]2C(=C)CC[C@H]3C(CNCCNCc4cc(Br)ccc4O)C(=O)O[C@@H]3[C@@H]12 (stereo partly specified)
- inhibition at 20 µM (RAW264.7 [1]): 23.5%
- cytotoxicity at 20 µM [2]: -2.07%

Structure (SMILES): C=C1CC[C@H]2C(=C)CC[C@H]3C(=C)C(=O)O[C@@H]3[C@@H]12 [DEHYDROCOSTUSLACTONE]
- inhibition at 20 µM (RAW264.7 [1]): 40.3%
- cytotoxicity at 20 µM [2]: 17.3%
- IC50 [3]: > 40 µM
- IC50 (RAW264.7 [4]): 21.5 µM

Structure (SMILES): C=C1CC[C@H]2C(=C)CC[C@H]3C(CNCCNS(=O)(=O)C4CC4)C(=O)O[C@@H]3[C@@H]12 (stereo partly specified)
- inhibition at 20 µM (RAW264.7 [1]): 85.4%
- cytotoxicity at 20 µM [2]: 12.2%
- IC50 [3]: > 40 µM
- IC50 (RAW264.7 [4]): 5.13 µM

Structure (SMILES): C=C1CC[C@H]2C(=C)CC[C@H]3C(CNCCNCc4cc(Cl)ccc4O)C(=O)O[C@@H]3[C@@H]12 (stereo partly specified)
- inhibition at 20 µM (RAW264.7 [1]): 34.1%
- cytotoxicity at 20 µM [2]: 16.7%
